# Source: patent US20230110899A1, “NOVEL COMPOSITIONS FOR TREATMENT OF CORONAVIRUS DISEASE” (priority 2020, published 2023)
# “And” between values parts separate entries of the source, which are not always exact repeats. Equal entries are not always repeated.
# Experiments:
# ERK1/2 = details: macrophages pretreated prior to S. suis infection, vs nontreated infected macrophages; cited from earlier work
# [1] = tested on: LPS induced ARDS mouse model; assay: LPS induced ARDS mouse model (tracheal instillation of 60 μg of LPS), oral and inhaled; type: in vivo, C57BL/6 mice; details: for blood oxygen saturation (SpO2): 72 h; for blood reticulocyte count: vs LPS negative control
# Spinal Cord Injury (SCI) = details: oral administration; cited from earlier work
# [2] = tested on: adult CF patients experiencing pulmonary exacerbation; details: cited from earlier work
# allergen-sensitized mice = details: mouse, in vivo; cited from earlier work
# [3] = target: T1, cytosolic phospholipases (cPLA2) (Homo sapiens, UniProt P47712); details: cited from earlier work
# T1 sequence (P47712 1-749): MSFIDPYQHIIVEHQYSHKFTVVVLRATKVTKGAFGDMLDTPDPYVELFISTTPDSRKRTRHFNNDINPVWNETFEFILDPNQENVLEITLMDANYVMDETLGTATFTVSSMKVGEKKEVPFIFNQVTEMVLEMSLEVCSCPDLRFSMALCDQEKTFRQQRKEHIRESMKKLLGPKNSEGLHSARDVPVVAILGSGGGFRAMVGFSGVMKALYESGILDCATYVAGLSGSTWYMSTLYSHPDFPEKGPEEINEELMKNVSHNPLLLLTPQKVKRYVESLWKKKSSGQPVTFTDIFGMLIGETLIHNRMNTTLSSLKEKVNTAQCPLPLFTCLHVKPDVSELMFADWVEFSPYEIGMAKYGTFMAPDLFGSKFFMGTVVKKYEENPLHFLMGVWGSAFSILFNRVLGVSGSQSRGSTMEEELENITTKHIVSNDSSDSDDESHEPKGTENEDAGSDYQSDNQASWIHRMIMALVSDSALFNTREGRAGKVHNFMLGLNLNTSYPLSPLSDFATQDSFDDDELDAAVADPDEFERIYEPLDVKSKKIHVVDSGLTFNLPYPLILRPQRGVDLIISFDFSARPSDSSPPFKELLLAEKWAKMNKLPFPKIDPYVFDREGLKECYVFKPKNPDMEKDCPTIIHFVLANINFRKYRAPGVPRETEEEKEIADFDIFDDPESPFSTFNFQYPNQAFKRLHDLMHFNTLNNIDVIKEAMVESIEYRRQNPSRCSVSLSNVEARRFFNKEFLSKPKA
# Dengue = details: cited from earlier work
# Zika virus = details: in vitro, by targeting nonstructural protein 5; cited from earlier work
# SARS-CoV-2 coronavirus = assay: SARS-CoV-2 plaque reduction assay in Vero E6 cells; type: cell-based; details: for Mean PFU/well: n=3
# Streptococcus suis = details: acute S. suis infection; cited from earlier work
# [4] = Plasma and lung fenretinide exposure, oral and inhaled (Example 3); type: in vivo, C57BL/6 mice; details: nebulization of 0.65 mg/mL for 30 or 60 min; calculated, confirmed by analysis of lung tissue
# [5] = tested on: MERS-CoV clinical isolate; details: viral spike (S) protein expression, infected Vero cells, IFA; read-out: 50% inhibitory concentration (IC50); cited from earlier work
# Pseudomonas aeruginosa = details: Cftr.KO mice; cited from earlier work
# Dengue infection = details: lethal mouse model; cited from earlier work
# Vero E6 cells = details: up to 40 μM concentrations
# [6] = inhaled fenretinide 1.8 μg/kg, 72 hours
# [7] = inhaled fenretinide 3.6 μg/kg, 72 hours
compound,measurement,setting,value
"CC1=C(/C=C/C(C)=C/C=C/C(C)=C/C(=O)Nc2ccc(O)cc2)C(C)(C)CCC1 [Fenretinide, 4-hydroxyphenyl retinamide]",ERK1/2 activation,ERK1/2,significant reduction in ERK1/2 activation
same,blood oxygen saturation (SpO2),[1]; inhaled fenretinide 1.8 μg/kg,"partially, but significantly, alleviated the reduction of blood oxygen saturation"
same,lung protein concentration,[1]; [6],reduced the lung protein concentration
same,blood reticulocyte count,[1]; [6],significantly increased reticulocyte counts
same,myeloperoxidase (MPO) activity in the BALF,"[1]; inhaled fenretinide 1.8 μg/kg, 72 hours, statistically significant vs negative control",reduced MPO activity
same,blood oxygen saturation (SpO2),[1]; inhaled fenretinide 3.6 μg/kg,"partially, but significantly, alleviated the reduction of blood oxygen saturation"
same,lung protein concentration,[1]; [7],reduced the lung protein concentration
same,blood reticulocyte count,[1]; [7],significantly increased reticulocyte counts
same,locomotor recovery,Spinal Cord Injury (SCI),improved locomotor recovery
same,"plasma levels of IL-6, IL-8, IL-10 and neutrophils count",[2]; at the onset of the PEx episode,appeared to improve
same,lipidomic markers,[2]; subgroup with pulmonary exacerbation (PEx),normalized the lipidomic markers in a dose-response manner
same,infiltration of inflammatory cells to the airways,allergen-sensitized mice,complete block of infiltration of inflammatory cells to the airways
same,activity of cytosolic phospholipases (cPLA2),[3],inhibits the activity of cytosolic phospholipases
same,antiviral activity against Dengue fever disease,Dengue,potent antiviral activity
same,activity against Zika virus,Zika virus,potent activity
same,IC50,"SARS-CoV-2 coronavirus; Severe acute respiratory syndrome coronavirus 2, Vero C1008, linear regression analysis (FIG. 1), R2=0.92, read-out: IC50, 50% inhibition of virus survival",1570 nM
same,% survival,SARS-CoV-2 coronavirus; fenretinide 0.625 μM,80.5%
same,"Plaque forming unit counts, Wells 1-3 (individual counts/well)",SARS-CoV-2 coronavirus; fenretinide 0.625 μM,21 and 19 and 22
same,Mean PFU/well,SARS-CoV-2 coronavirus; fenretinide 0.625 μM,20.7 PFU/well
same,% survival,SARS-CoV-2 coronavirus; fenretinide 1.25 μM,75.3%
same,"Plaque forming unit counts, Wells 1-3 (individual counts/well)",SARS-CoV-2 coronavirus; fenretinide 1.25 μM,14 and 31 and 13
same,Mean PFU/well,SARS-CoV-2 coronavirus; fenretinide 1.25 μM,19.3 PFU/well
same,% survival,SARS-CoV-2 coronavirus; fenretinide 2.5 μM,24.7%
same,"Plaque forming unit counts, Wells 1-3 (individual counts/well)",SARS-CoV-2 coronavirus; fenretinide 2.5 μM,6 and 3 and 10
same,Mean PFU/well,SARS-CoV-2 coronavirus; fenretinide 2.5 μM,6.3 PFU/well
same,% survival,SARS-CoV-2 coronavirus; fenretinide 5 μM,0.0%
same,"Plaque forming unit counts, Wells 1-3 (individual counts/well)",SARS-CoV-2 coronavirus; fenretinide 5 μM,0
same,Mean PFU/well,SARS-CoV-2 coronavirus; fenretinide 5 μM,0.0 PFU/well
same,survival,Streptococcus suis,significantly improved their survival
same,effective fenretinide dose delivered to the lungs (local lung concentration),[4],1 to 3 µM
same,IC50,[5],2800 nM
same,pulmonary load of Pseudomonas aeruginosa,Pseudomonas aeruginosa,significant decrease in the pulmonary load of Pseudomonas aeruginosa
same,protection against Dengue infection,Dengue infection,can protect against Dengue infection
CCC(CC)COC(=O)[C@H](C)N[P@](=O)(OC[C@H]1O[C@@](C#N)(c2ccc3c(N)ncnn23)[C@H](O)[C@@H]1O)Oc1ccccc1 [Remdesivir],% virus survival,SARS-CoV-2 coronavirus; remdesivir 0.625 μM,90.9%
same,"Plaque forming unit counts, Wells 1-3 (individual counts/well)",SARS-CoV-2 coronavirus; remdesivir 0.625 μM,25 (2×) and 20
same,Mean PFU/well,SARS-CoV-2 coronavirus; remdesivir 0.625 μM,23.3 PFU/well
same,% virus survival,SARS-CoV-2 coronavirus; remdesivir 1.25 μM,42.9%
same,"Plaque forming unit counts, Wells 1-3 (individual counts/well)",SARS-CoV-2 coronavirus; remdesivir 1.25 μM,10 and 11 and 12
same,Mean PFU/well,SARS-CoV-2 coronavirus; remdesivir 1.25 μM,11.0 PFU/well
same,"Plaque forming unit counts, Wells 1-3 (individual counts/well)",SARS-CoV-2 coronavirus; remdesivir 2.5 μM,5 (2×) and 2
same,Mean PFU/well,SARS-CoV-2 coronavirus; remdesivir 2.5 μM,4.0 PFU/well
same,% virus survival,SARS-CoV-2 coronavirus; remdesivir 5 μM,2.6%
same,"Plaque forming unit counts, Wells 1-3 (individual counts/well)",SARS-CoV-2 coronavirus; remdesivir 5 μM,1 (2×) and 0
same,Mean PFU/well,SARS-CoV-2 coronavirus; remdesivir 5 μM,0.7 PFU/well
same,% virus survival,SARS-CoV-2 coronavirus; remdesivir 10 μM,0%
same,"Plaque forming unit counts, Wells 1-3 (individual counts/well)",SARS-CoV-2 coronavirus; remdesivir 10 μM,0
same,Mean PFU/well,SARS-CoV-2 coronavirus; remdesivir 10 μM,0.0 PFU/well
same,% virus survival,SARS-CoV-2 coronavirus; remdesivir 20 μM,0.0%
same,"Plaque forming unit counts, Wells 1-3 (individual counts/well)",SARS-CoV-2 coronavirus; remdesivir 20 μM,0
same,Mean PFU/well,SARS-CoV-2 coronavirus; remdesivir 20 μM,0.0 PFU/well
same,% virus survival,SARS-CoV-2 coronavirus; remdesivir 40 μM,0.0%
same,"Plaque forming unit counts, Wells 1-3 (individual counts/well)",SARS-CoV-2 coronavirus; remdesivir 40 μM,0
same,Mean PFU/well,SARS-CoV-2 coronavirus; remdesivir 40 μM,0.0 PFU/well
same,cytopathic effect,Vero E6 cells,No cytopathic effect
